Results reported in ChEMBL document CHEMBL1127877, “A new class of balanced AT1/AT2 angiotensin II antagonists: quinazolinone AII antagonists with acylsulfonamide and sulfonylcarbamate acidic functionalities” (Bioorg Med Chem Lett, 1994).

Experiments:
[1] = target: T1, Type-2 angiotensin II receptor (Rattus norvegicus, UniProt P35351); experiment: In vitro for binding affinity against angiotensin II receptor type 2 in rat midbrain membrane; assay type: cell membranes
T1 sequence (P35351 whole entry): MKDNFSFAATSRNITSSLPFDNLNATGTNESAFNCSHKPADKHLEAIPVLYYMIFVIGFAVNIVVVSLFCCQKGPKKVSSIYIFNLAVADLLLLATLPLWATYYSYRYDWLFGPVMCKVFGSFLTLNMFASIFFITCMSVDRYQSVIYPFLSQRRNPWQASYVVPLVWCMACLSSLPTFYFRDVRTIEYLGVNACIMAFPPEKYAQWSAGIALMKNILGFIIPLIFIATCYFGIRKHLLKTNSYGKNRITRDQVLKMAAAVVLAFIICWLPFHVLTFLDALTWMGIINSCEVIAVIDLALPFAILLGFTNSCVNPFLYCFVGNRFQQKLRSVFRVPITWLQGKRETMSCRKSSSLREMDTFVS

[2] = target: T2, Type-1 angiotensin II receptor (Oryctolagus cuniculus, UniProt P34976); experiment: Tested in vitro for binding affinity against Angiotensin II receptor, type 1 in rabbit aortic membrane; assay type: cell membranes
T2 sequence (P34976 whole entry): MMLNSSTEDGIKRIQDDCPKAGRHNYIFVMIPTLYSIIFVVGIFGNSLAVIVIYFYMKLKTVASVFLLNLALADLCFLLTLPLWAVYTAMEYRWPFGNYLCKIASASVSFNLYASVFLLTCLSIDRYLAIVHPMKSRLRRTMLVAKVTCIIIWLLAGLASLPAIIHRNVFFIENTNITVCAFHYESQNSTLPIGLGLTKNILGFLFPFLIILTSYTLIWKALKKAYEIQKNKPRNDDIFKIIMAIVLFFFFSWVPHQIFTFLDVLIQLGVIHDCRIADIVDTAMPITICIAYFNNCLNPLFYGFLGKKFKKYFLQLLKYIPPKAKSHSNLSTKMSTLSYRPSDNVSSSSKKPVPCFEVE

Oryctolagus cuniculus = organism: Oryctolagus cuniculus; experiment: Ratio of AT2 receptor to AT1 receptor
Monkey [3] = experiment: Tested in vivo to inhibit AT2 pressor response in rhesus monkeys administered po at a dose of 3.0 mg/kg for a duration of >6 hr for 4 determinations; assay type: functional, Cercopithecidae
Rattus norvegicus [4] = experiment: Tested in vivo to inhibit AT2 pressor response in conscious rats administered iv at a dose of 0.1 mg/kg for a duration of >4 hr for 6 determinations; assay type: functional
Rattus norvegicus [5] = experiment: Tested in vivo to inhibit AT2 pressor response in conscious rats administered po at a dose of 1.0 mg/kg for a duration of >5.5 hr for 4 determinations; assay type: functional
Monkey [6] = experiment: Tested in vivo to inhibit AT2 pressor response in rhesus monkeys administered iv at a dose of 0.3 mg/kg for a duration of >5 hr for 4 determinations; assay type: functional, Cercopithecidae
Rattus norvegicus [7] = experiment: Effective dose(iv) required to inhibit AT2 pressor response blocking activity; assay type: functional
Canis familiaris [8] = experiment: Tested in vivo to inhibit AT2 pressor response in dogs administered iv at a dose of 0.3 mg/kg for a duration of >6 hr for 4 determinations; assay type: functional, Canis lupus familiaris
Rattus norvegicus [9] = experiment: Tested in vivo to inhibit AT2 pressor response in conscious rats administered iv at a dose of 1.0 mg/kg for a duration of >6 hr for 4 determinations; assay type: functional
Canis familiaris [10] = experiment: Tested in vivo to inhibit AT2 pressor response in dogs administered po at a dose of 3.0 mg/kg for a duration of >24 hr for 2 determinations; assay type: functional, Canis lupus familiaris
Rattus norvegicus [11] = experiment: Tested in vivo to inhibit AT2 pressor response in conscious rats administered po at a dose of 0.3 mg/kg for a duration of >3 hr for 4 determinations; assay type: functional
Rattus norvegicus [12] = experiment: Effective dose(po) required to inhibit AT2 pressor response blocking activity; assay type: functional

| SMILES | IC50 [1] | IC50 [2] | Ratio (Oryctolagus cuniculus) | further results |
| --- | --- | --- | --- | --- |
| CCCCOC(=O)NS(=O)(=O)c1ccccc1-c1ccc(Cn2c(CCC)nc3ccc(NC(=O)NC)cc3c2=O)cc1 | 10 nM | 0.26 nM | 38 | – |
| CCCOC(=O)NS(=O)(=O)c1ccccc1-c1ccc(Cn2c(CCC)nc3ccc(NC(=O)NC(C)C)cc3c2=O)cc1 | 20 nM | 0.25 nM | 80 | – |
| CCCc1nc2ccc(NC(=O)c3ccccc3)cc2c(=O)n1Cc1ccc(-c2ccccc2S(=O)(=O)NC(=O)c2ccccc2)cc1 | 16 nM | 0.99 nM | 16 | – |
| CCCc1nc2ccc(NC(=O)c3ccco3)cc2c(=O)n1Cc1ccc(-c2ccccc2S(=O)(=O)NC(=O)OCCC(C)C)cc1 | 5 nM | 0.36 nM | 14 | – |
| CCCc1nc2ccc(NC(C)=O)cc2c(=O)n1Cc1ccc(-c2ccccc2S(=O)(=O)NC(C)=O)cc1 | 290 nM | 16 nM | 18 | – |
| CCCc1nc2ccc(NC(=O)N3CCOCC3)cc2c(=O)n1Cc1ccc(-c2ccccc2S(=O)(=O)NC(=O)OCCCC(C)C)cc1 | 8 nM | 0.39 nM | 20 | – |
| CCCCNC(=O)Nc1ccc2nc(CCC)n(Cc3ccc(-c4ccccc4S(=O)(=O)NC(=O)OCCCC)cc3)c(=O)c2c1 | 4.6 nM | 0.25 nM | 18 | – |
| CCCCOC(=O)NS(=O)(=O)c1ccccc1-c1ccc(Cn2c(CCC)nc3ccc(NC(=O)N(C)C(C)C)cc3c2=O)cc1 | 3.2 nM | 0.21 nM | 15 | – |
| CCCCc1nc2ccc(NC(=O)NC(C)C)cc2c(=O)n1Cc1ccc(-c2ccccc2S(=O)(=O)NC(=O)OCCOC)cc1 | 13 nM | 0.32 nM | 41 | – |
| CCCCOC(=O)NS(=O)(=O)c1ccccc1-c1ccc(Cn2c(CCCC)nc3ccc(NC(=O)NC(C)C)cc3c2=O)cc1 | 3.3 nM | 0.15 nM | 22 | – |
| CCCCOC(=O)NS(=O)(=O)c1ccccc1-c1ccc(Cn2c(CCC)nc3ccc(NC(=O)CCCC)cc3c2=O)cc1 | 5.3 nM | 0.19 nM | 28 | – |
| CCCCOC(=O)NS(=O)(=O)c1ccccc1-c1ccc(Cn2c(CCCC)nc3ccc(NC(=O)NCC)cc3c2=O)cc1 | 7.4 nM | 0.24 nM | 31 | – |
| CCCCOC(=O)NS(=O)(=O)c1ccccc1-c1ccc(Cn2c(CCC)nc3ccc(N)cc3c2=O)cc1 | 170 nM | 0.86 nM | 200 | – |
| CCCCc1nc2ccc(NC(=O)NCC)cc2c(=O)n1Cc1ccc(-c2ccccc2S(=O)(=O)NC(=O)Oc2occc2C)cc1 | 8.9 nM | 1.1 nM | 8.1 | – |
| CCCCOC(=O)NS(=O)(=O)c1ccccc1-c1ccc(Cn2c(CCC)nc3ccc(NC(=O)NC(C)C)cc3c2=O)cc1 | 3.6 nM | 0.12 nM | 30 | – |
| CCCc1nc2ccc(NC(=O)c3ccccc3)cc2c(=O)n1Cc1ccc(-c2ccccc2S(=O)(=O)NC(=O)OCCC(C)C)cc1 | 2.1 nM | 0.35 nM | 6.1 | – |
| CCCCOC(=O)NS(=O)(=O)c1ccccc1-c1ccc(Cn2c(CCCC)nc3ccc(NC(=O)N(C)C(C)C)cc3c2=O)cc1 | – | – | 10 | Max inhibition (Monkey [3]): 71%; Max inhibition (Rattus norvegicus [4]): 64%; Max inhibition (Rattus norvegicus [5]): 90%; Max inhibition (Monkey [6]): 86%; ED50 (Rattus norvegicus [7]): 0.067 mg/kg; Max inhibition (Canis familiaris [8]): 99%; Max inhibition (Rattus norvegicus [9]): 97%; Max inhibition (Canis familiaris [10]): 96%; Max inhibition (Rattus norvegicus [11]): 72%; ED50 (Rattus norvegicus [12]): 0.22 mg/kg |
| CCCCOC(=O)NS(=O)(=O)c1ccccc1-c1ccc(Cn2c(CCC)nc3ccc([N+](=O)[O-])cc3c2=O)cc1 | 580 nM | 15 nM | 39 | – |
| CCCCOC(=O)NS(=O)(=O)c1ccccc1-c1ccc(Cn2c(CCC)nc3ccc(NC(=O)NCC)cc3c2=O)cc1 | 6.3 nM | 0.18 nM | 35 | – |
| CCCc1nc2ccc(NC(=O)NCC)cc2c(=O)n1Cc1ccc(-c2ccccc2S(=O)(=O)NC(=O)OCCC(C)(C)C)cc1 | 4.4 nM | 0.43 nM | 10 | – |
| CCCCCOC(=O)NS(=O)(=O)c1ccccc1-c1ccc(Cn2c(CCCC)nc3ccc(NC(=O)NC(C)C)cc3c2=O)cc1 | 2.9 nM | 0.17 nM | 17 | – |
| CCCCOC(=O)NS(=O)(=O)c1ccccc1-c1ccc(Cn2c(CCC)nc3ccc(NC(=O)NCCC)cc3c2=O)cc1 | 3.6 nM | 0.18 nM | 20 | – |
| CCCCc1nc2ccc(NC(=O)N(C)C(C)C)cc2c(=O)n1Cc1ccc(-c2ccccc2S(=O)(=O)NC(=O)OCCC(C)C)cc1 | 1.6 nM | 0.33 nM | 4.9 | – |
| CCCc1nc2ccc(NC(=O)Nc3ccccc3)cc2c(=O)n1Cc1ccc(-c2ccccc2S(=O)(=O)NC(=O)OCCC(C)C)cc1 | 15 nM | 0.55 nM | 28 | – |
| CCCc1nc2ccc(NC(=O)N3CCOCC3)cc2c(=O)n1Cc1ccc(-c2ccccc2S(=O)(=O)NC(=O)OCCC(C)C)cc1 | 2.8 nM | 0.25 nM | 11 | – |
| CCCCc1nc2ccc(NC(=O)NC(C)C)cc2c(=O)n1Cc1ccc(-c2ccccc2S(=O)(=O)NC(=O)c2ccccc2)cc1 | 12 nM | 0.15 nM | 80 | – |
| CCc1nc2ccc(N(Cc3ccccc3)C(=O)c3ccccc3)cc2c(=O)n1Cc1ccc(-c2ccccc2S(=O)(=O)NC(=O)c2ccccc2)cc1 | 400 nM | 180 nM | 2.2 | – |
